{"source": "patent US8487108B2", "about": "“Piperidinyl carbamate intermediates for the synthesis of aspartic protease inhibitors” (Vitae Pharmaceuticals, Inc., priority 2005, dated 2013)"}
{"biological_target": "T1, trypsin-activated recombinant human renin (Homo sapiens, UniProt P00797)", "T1 sequence (P00797 67-406)": "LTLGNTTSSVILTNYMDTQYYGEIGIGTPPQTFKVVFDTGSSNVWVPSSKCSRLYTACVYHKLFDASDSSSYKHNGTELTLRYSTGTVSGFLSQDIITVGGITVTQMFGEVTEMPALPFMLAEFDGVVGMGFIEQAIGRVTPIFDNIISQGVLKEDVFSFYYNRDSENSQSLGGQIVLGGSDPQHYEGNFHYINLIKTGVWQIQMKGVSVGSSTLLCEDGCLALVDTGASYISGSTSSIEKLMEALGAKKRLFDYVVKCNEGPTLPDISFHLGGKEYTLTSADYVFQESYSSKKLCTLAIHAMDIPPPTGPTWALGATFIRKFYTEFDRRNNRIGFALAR", "test": "Renin fluorescence assay (internally quenched peptide substrate)", "type": "biochemical", "conditions": "compounds I*", "method_in_brief": "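Compounds (1 nM–10 μM final, DMSO) were mixed with internally quenched angiotensinogen-sequence substrate in pH 7.0 BES/NaCl/BSA buffer, then 0.2-2 nM trypsin-activated human renin added. Rate from the linear fluorescence increase (340 nm excitation, 495 nm emission) over 60-360 min at rt, compared with uninhibited control.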", "units": {"IC50": "µM"}}
{"smiles": "CNC[C@H](CC1CCOCC1)NC(=O)N1CCC[C@@H]([C@@H](OCCNC(=O)OC)c2cc(F)ccc2C)C1", "note": "[I*-50a, methyl 2-((R)-(5-fluoro-2-methylphenyl)((R)-1-((S)-1-(methylamino)-3-(tetrahydro-2H-pyran-4-yl)propan-2-ylcarbamoyl)piperidin-3-yl)methoxy)ethylcarbamate]", "IC50": "< 0.01"}
{"smiles": "CNC[C@H](CC1CCCCC1)NC(=O)N1CCC[C@@H]([C@@H](OCCNC(=O)OC)c2cccc(C(F)(F)F)c2)C1", "note": "[I*-136a, methyl 2-((R)-((R)-1-((S)-1-cyclohexyl-3-(methylamino)propan-2-ylcarbamoyl)piperidin-3-yl)(3-(trifluoromethyl)phenyl)methoxy)ethylcarbamate]", "IC50": "< 0.01"}
{"smiles": "COC(=O)NCCO[C@@H](c1cc(F)cc(F)c1)[C@@H]1CCCN(C(=O)NC[C@@H](N)C[C@H]2CCCCOC2)C1", "note": "[I*-73a, methyl 2-((R)-((R)-1-((S)-2-amino-3-((R)-oxepan-3-yl)propylcarbamoyl)piperidin-3-yl)(3,5-difluorophenyl)methoxy)ethylcarbamate]", "IC50": "< 0.01"}
{"smiles": "CNC[C@H](CC1CCCCC1)N/C(=N\\C#N)N1CCC[C@@H]([C@@H](OCCNC(=O)OC)c2cccc(Cl)c2)C1", "note": "[I*-127a, methyl 2-((R)-(3-chlorophenyl)((R)-1-(N′-cyano-N—((S)-1-cyclohexyl-3-(methylamino)propan-2-yl)carbamimidoyl)piperidin-3-yl)methoxy)ethylcarbamate]", "IC50": "< 0.02"}
{"smiles": "CNC[C@H](CC1CCCCC1)NC(=O)N1CCC[C@@H]([C@H](CCCNC(=O)OC)c2cccc(F)c2)C1", "note": "[I*-22a, methyl (S)-4-((S)-1-((S)-1-cyclohexyl-3-(methylamino)propan-2-ylcarbamoyl)piperidin-3-yl)-4-(3-fluorophenyl)butylcarbamate]", "IC50": "> 0.05"}
{"smiles": "CNC[C@H](C[C@H]1CCCCOC1)NC(=O)N1CCC[C@@H]([C@@H](OCCNC(=O)OC)c2ccccc2)C1", "note": "[I*-21a, Methyl 2-((R)—((R)-1-((S)-1-(methylamino)-3-((R)-oxepan-3-yl)propan-2-ylcarbamoyl)piperidin-3-yl)(phenyl)methoxy)ethylcarbamate]", "IC50": "< 0.01"}
{"smiles": "CNC[C@H](C[C@H]1CCC(=O)N(C)C1)NC(=O)N1CCC[C@@H]([C@@H](OCCNC(=O)OC)c2cccc(Cl)c2)C1", "note": "[I*-131a, methyl 2-((R)-(3-chlorophenyl)((R)-1-((S)-1-((R)-1-methyl-6-oxopiperidin-3-yl)-3-(methylamino)propan-2-ylcarbamoyl)piperidin-3-yl)methoxy)ethylcarbamate]", "IC50": "> 0.05"}
{"smiles": "CNC[C@H](CC1CCCCC1)NC(=O)N1CCC[C@@H]([C@@H](OCCNC(=O)OC)c2nc(C)cs2)C1", "note": "[I*-32a, methyl 2-((R)-((R)-1-((S)-1-cyclohexyl-3-(methylamino)propan-2-ylcarbamoyl)piperidin-3-yl)(4-methylthiazol-2-yl)methoxy)ethylcarbamate]", "IC50": "< 0.01"}
{"smiles": "CNC[C@H](CC1CCCC1)NC(=O)N1CCC[C@@H]([C@@H](OCCNC(=O)OC)c2cc(F)ccc2C)C1", "note": "[I*-24a, methyl 2-((R)—((R)-1-((S)-1-cyclopentyl-3-(methylamino)propan-2-ylcarbamoyl)piperidin-3-yl)(5-fluoro-2-methylphenyl)methoxy)ethylcarbamate]", "IC50": "< 0.001"}
{"smiles": "COC(=O)NCCO[C@@H](c1cc(F)ccc1C)[C@@H]1CCCN(C(=O)NC[C@@H](N)C[C@H]2CCCCOC2)C1", "note": "[I*-58a, methyl 2-((R)-((R)-1-((S)-2-amino-3-((R)-oxepan-3-yl)propylcarbamoyl)piperidin-3-yl)(5-fluoro-2-methylphenyl)methoxy)ethylcarbamate]", "IC50": "< 0.01"}
{"smiles": "CNC[C@H](CC1CCCCC1)NC(=O)N1CCC[C@@H]([C@H](OCCNC(=O)OC)c2nc(C)cs2)C1", "note": "[I*-33a, methyl 2-((S)-((R)-1-((S)-1-cyclohexyl-3-(methylamino)propan-2-ylcarbamoyl)piperidin-3-yl)(4-methylthiazol-2-yl)methoxy)ethylcarbamate]", "IC50": "> 0.05"}
{"smiles": "CNC[C@H](C[C@H]1CCC(C)(C)OC1)NC(=O)N1CCC[C@@H]([C@@H](OCCNC(=O)OC)c2cccc(F)c2)C1", "note": "[I*-154a, methyl 2-((R)-(3-fluorophenyl)((R)-1-((S)-1-((R)-6,6-dimethyl-tetrahydro-2H-pyran-3-yl)-3-(methylamino)propan-2-ylcarbamoyl)piperidin-3-yl)methoxy)ethylcarbamate]", "IC50": "< 0.02"}
{"smiles": "CNC[C@H](CC1CCCCC1)NC(=O)N1CCC[C@@H]([C@@H](OCCNC(=O)OC)c2ccc(F)c(F)c2)C1", "note": "[I*-65a, methyl 2-((R)-((R)-1-((S)-1-cyclohexyl-3-(methylamino)propan-2-ylcarbamoyl)piperidin-3-yl)(3,4-difluorophenyl)methoxy)ethylcarbamate]", "IC50": "< 0.01"}
{"smiles": "CNC[C@H](C[C@H]1CCCCOC1)NC(=O)N1CCC[C@@H]([C@@H](OCCNC(=O)OC)c2ccccc2F)C1", "note": "[I*-57a, methyl 2-((1R)-(2-fluorophenyl)((3R)-1-(1-(methylamino)-3-((R)-oxepan-3-yl)propan-2-ylcarbamoyl)piperidin-3-yl)methoxy)ethylcarbamate]", "IC50": "< 0.01"}
{"smiles": "CNC[C@@H](NC(=O)N1CCC[C@@H]([C@@H](OCCNC(=O)OC)c2ccccc2)C1)[C@@H](O)C1CCCCC1", "note": "[I*-19a, methyl 2-((R)—((R)-1-((1S,2R)-1-cyclohexyl-1-hydroxy-3-(methylamino)propan-2-ylcarbamoyl)piperidin-3-yl)(phenyl)methoxy)ethylcarbamate]", "IC50": "< 0.01"}
{"smiles": "CNC[C@H](CC1CCCCC1)NC(=O)N1CCC[C@@H]([C@@H](OCCNC(=O)OC)C2CCCCC2)C1", "note": "[I*-10a, methyl 2-((S)-cyclohexyl((R)-1-((S)-1-cyclohexyl-3-(methylamino)propan-2-ylcarbamoyl)piperidin-3-yl)methoxy)ethylcarbamate]", "IC50": "< 0.01"}
{"smiles": "CNC[C@H](CC1CCCCC1)NC(=O)N1CCC[C@@H]([C@@H](OCCNC(=O)OC)c2cc(F)cc(F)c2)C1", "note": "[I*-64a, methyl 2-((R)-((R)-1-((S)-1-cyclohexyl-3-(methylamino)propan-2-ylcarbamoyl)piperidin-3-yl)(3,5-difluorophenyl)methoxy)ethylcarbamate]", "IC50": "< 0.001"}
{"smiles": "CNC[C@H](CC1CCCCC1)NC(=O)N1CCC[C@@H]([C@@H](OCCNC(=O)OC)c2cc(Cl)ccc2F)C1", "note": "[I*-117a, methyl 2-((R)-(5-chloro-2-fluorophenyl)((R)-1-((S)-1-cyclohexyl-3-(methylamino)propan-2-ylcarbamoyl)piperidin-3-yl)methoxy)ethylcarbamate]", "IC50": "< 0.001"}
{"smiles": "CNC[C@H](C[C@H]1C[C@@H](F)[C@@H](F)C1)NC(=O)N1CCC[C@@H]([C@@H](OCCNC(=O)OC)c2cccc(Cl)c2)C1", "note": "[I*-124a, methyl 2-((R)-(3-chlorophenyl)((R)-1-((S)-1-((1r,3S,4R)-3,4-difluorocyclopentyl)-3-(methylamino)propan-2-ylcarbamoyl)piperidin-3-yl)methoxy)ethylcarbamate]", "IC50": "< 0.02"}
{"smiles": "CNC[C@H](CC1CCOCC1)NC(=O)N1CCC[C@@H]([C@@H](OCCNC(=O)OC)c2cc(F)ccc2F)C1", "note": "[I*-69a, methyl 2-((R)-(2,5-difluorophenyl)((R)-1-((S)-1-(methylamino)-3-(tetrahydro-2H-pyran-4-yl)propan-2-ylcarbamoyl)piperidin-3-yl)methoxy)ethylcarbamate]", "IC50": "< 0.05"}
{"smiles": "CNC[C@H](CC1CCOCC1)NC(=O)N1CCC[C@@H]([C@@H](OCCNC(=O)OC)c2cc(C)cc(C)c2)C1", "note": "[I*-36a, methyl 2-((R)-(3,5-dimethylphenyl)((R)-1-((S)-1-(methylamino)-3-(tetrahydro-2H-pyran-4-yl)propan-2-ylcarbamoyl)piperidin-3-yl)methoxy)ethylcarbamate]", "IC50": "< 0.05"}
{"smiles": "CNC[C@H](CC1CCOCC1)NC(=O)N1CCCC[C@@H]([C@@H](OCCNC(=O)OC)c2cccc(Cl)c2)C1", "note": "[I*-108a, methyl 2-((R)-(3-chlorophenyl)((R)-1-((S)-1-(methylamino)-3-(tetrahydro-2H-pyran-4-yl)propan-2-ylcarbamoyl)azepan-3-yl)methoxy)ethylcarbamate]", "IC50": "< 0.05"}
{"smiles": "CN[C@H](CNC(=O)N1CCC[C@@H]([C@@H](OCCNC(=O)OC)c2cc(F)cc(Cl)c2)C1)C[C@H]1CCCCOC1", "note": "[I*-143a, methyl 2-((R)-(3-chloro-5-fluorophenyl)((R)-1-((S)-2-(methylamino)-3-((R)-oxepan-3-yl)propylcarbamoyl)piperidin-3-yl)methoxy)ethylcarbamate]", "IC50": "< 0.001"}
{"smiles": "CNC[C@H](CC1CCCCC1)NC(=O)N1CCC[C@@H]([C@@H](OCCNC(=O)OC)c2cccs2)C1", "note": "[I*-9a, methyl 2-((R)-((R)-1-((S)-1-cyclohexyl-3-(methylamino)propan-2-ylcarbamoyl)piperidin-3-yl)(thiophen-2-yl)methoxy)ethylcarbamate]", "IC50": "< 0.001"}
{"smiles": "CNC[C@H](CC1CCOCC1)NC(=O)N1CCC[C@@H]([C@@H](OCCNC(=O)OC)c2cc(F)cc(F)c2)C1", "note": "[I*-70a, methyl 2-((R)-(3,5-difluorophenyl)((R)-1-((S)-1-(methylamino)-3-(tetrahydro-2H-pyran-4-yl)propan-2-ylcarbamoyl)piperidin-3-yl)methoxy)ethylcarbamate]", "IC50": "< 0.02"}
